Several values for one entry are separate records, joined by “and”; a condition that tells them apart may be missing. Identical values can stand only once. Inconclusive results and toxic doses are left out. Peptide text beside a SMILES is read from it. * marks the point of attachment. Cbz = O=C(OCc1ccccc1)*
System: P388 leukemia ip, CD2F1 mice, survival T/C
Test: NCI In Vivo Anticancer Drug Screen. Data for tumor model P388 Leukemia (intraperitoneal) in CD2F1 (CDF1) mice
Conditions: endpoint: median survival time, higher = longer survival
Procedure, shortened: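 Mice carrying the transplanted tumor received test compound or vehicle. Survival was recorded in each group, and the value is the treated-group measurement divided by that of the vehicle-treated control group.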

[1] = dose: 50.0 mg/kg/injection, schedule: Q01DX005 (ip), vehicle: saline with Tween-80
[2] = dose: 100.0 mg/kg/injection, schedule: Q01DX005 (ip), vehicle: saline with Tween-80
[3] = dose: 200.0 mg/kg/injection, schedule: Q01DX005 (ip), vehicle: saline with Tween-80
[4] = dose: 50.0 mg/kg/injection, schedule: Q01DX005 (ip), vehicle: saline
[5] = dose: 100.0 mg/kg/injection, schedule: Q01DX005 (ip), vehicle: saline
[6] = dose: 200.0 mg/kg/injection, schedule: Q01DX005 (ip), vehicle: saline
[7] = dose: 6.25 mg/kg/injection, schedule: Q01DX009 (ip), vehicle: saline with Tween-80
[8] = dose: 100.0 mg/kg/injection, schedule: Q01DX009 (ip), vehicle: saline with Tween-80
[9] = dose: 100.0 mg/kg/injection, schedule: Q04DX003 (ip), vehicle: saline
[10] = dose: 60.0 mg/kg/injection, schedule: Q01DX005 (ip), vehicle: saline with Tween-80
[11] = dose: 120.0 mg/kg/injection, schedule: Q01DX005 (ip), vehicle: saline with Tween-80
[12] = dose: 6.25 mg/kg/injection, schedule: Q01DX005 (ip), vehicle: saline with Tween-80
[13] = dose: 12.5 mg/kg/injection, schedule: Q01DX005 (ip), vehicle: saline with Tween-80
[14] = dose: 60.0 mg/kg/injection, schedule: Q01DX005 (ip), vehicle: Klucel (hydroxypropylcellulose) (HPC)
[15] = dose: 120.0 mg/kg/injection, schedule: Q01DX005 (ip), vehicle: Klucel (hydroxypropylcellulose) (HPC)
[16] = dose: 240.0 mg/kg/injection, schedule: Q01DX005 (ip), vehicle: Klucel (hydroxypropylcellulose) (HPC)

## CC(=O)OCC12C(OC(=O)c3ccccc3)C(=O)C3C(OC(C)=O)C1(OC3(C)C)C(C)(O)CC(OC(C)=O)C2OC(=O)/C=C/c1ccccc1 (configuration not stated) (tested in a mixture with another compound)
dose: 25.0 mg/kg/injection, schedule: Q01DX005 (ip), vehicle: Klucel (hydroxypropylcellulose) (HPC)
  T/C: 100 % of control
dose: 50.0 mg/kg/injection, schedule: Q01DX005 (ip), vehicle: Klucel (hydroxypropylcellulose) (HPC)
  T/C: 100 % of control
dose: 100.0 mg/kg/injection, schedule: Q01DX005 (ip), vehicle: Klucel (hydroxypropylcellulose) (HPC)
  T/C: 102 % of control
dose: 200.0 mg/kg/injection, schedule: Q01DX005 (ip), vehicle: Klucel (hydroxypropylcellulose) (HPC)
  T/C: 102 % of control

## CN(C)S(=O)(=O)CCNC(=O)N(CCCl)N=O
dose: 2.5 mg/kg/injection, schedule: Q01DX005 (ip), vehicle: saline
  T/C: 100 % of control
dose: 5.0 mg/kg/injection, schedule: Q01DX005 (ip), vehicle: saline
  T/C: 104 % of control
dose: 10.0 mg/kg/injection, schedule: Q01DX005 (ip), vehicle: saline
  T/C: 119 % of control and 218 % of control
dose: 20.0 mg/kg/injection, schedule: Q01DX005 (ip), vehicle: saline
  T/C: 203 % of control and 250 % of control

## O=c1c2ccccc2oc2nc3cc(Cl)ccc3n12
[1]
  T/C: 104 % of control
[2]
  T/C: 95 % of control
[3]
  T/C: 98 % of control

## C=CCSc1nc2ccc(NCn3c(=S)sc4cc([N+](=O)[O-])ccc43)cc2s1
dose: 100.0 mg/kg/injection, schedule: Q04DX003 (ip), vehicle: Klucel (hydroxypropylcellulose) (HPC)
  T/C: 90 % of control
dose: 200.0 mg/kg/injection, schedule: Q04DX003 (ip), vehicle: Klucel (hydroxypropylcellulose) (HPC)
  T/C: 86 % of control

## CC(C)CC(NC(=O)C(C)N)C(N)=O (configuration not stated)
[4]
  T/C: 99 % of control
[5]
  T/C: 103 % of control
[6]
  T/C: 96 % of control

## CCOc1cc2c(cc1C(C)c1ccc(OC)cc1)OCO2 (configuration not stated)
dose: 25.0 mg/kg/injection, schedule: Q01DX005 (ip), vehicle: distilled water + alcohol
  T/C: 96 % of control
dose: 50.0 mg/kg/injection, schedule: Q01DX005 (ip), vehicle: distilled water + alcohol
  T/C: 100 % of control and 119 % of control
dose: 100.0 mg/kg/injection, schedule: Q01DX005 (ip), vehicle: distilled water + alcohol
  T/C: 123 % of control
dose: 200.0 mg/kg/injection, schedule: Q01DX005 (ip), vehicle: distilled water + alcohol
  T/C: 92 % of control

## C[C@H]1C(=O)NC(=O)[C@@H]1C
[4]
  T/C: 106 % of control
[5]
  T/C: 100 % of control
[6]
  T/C: 103 % of control

## S=C(Oc1ccccc1)Oc1ccccc1
[7]
  T/C: 95 % of control
dose: 12.5 mg/kg/injection, schedule: Q01DX009 (ip), vehicle: saline with Tween-80
  T/C: 91 % of control
[8]
  T/C: 93 % of control

## CCCCC1SC2=NCCCN2C1(O)c1ccc(Cl)cc1 (configuration not stated)
dose: 50.0 mg/kg/injection, schedule: Q01DX009 (ip), vehicle: saline with Tween-80
  T/C: 105 % of control
[8]
  T/C: 106 % of control

## NC(=O)c1ccc(N)nc1
dose: 0.63 mg/kg/injection, schedule: Q01DX009 (ip), vehicle: saline
  T/C: 104 % of control
dose: 1.25 mg/kg/injection, schedule: Q01DX009 (ip), vehicle: saline
  T/C: 100 % of control
dose: 1.56 mg/kg/injection, schedule: Q01DX009 (ip), vehicle: saline with Tween-80
  T/C: 110 % of control
dose: 2.5 mg/kg/injection, schedule: Q01DX009 (ip), vehicle: saline
  T/C: 121 % of control
dose: 3.12 mg/kg/injection, schedule: Q01DX009 (ip), vehicle: saline with Tween-80
  T/C: 122 % of control
[7]
  T/C: 117 % of control and 95 % of control
dose: 6.25 mg/kg/injection, schedule: Q04DX003 (ip), vehicle: saline with Tween-80
  T/C: 109 % of control

## C(=C\c1cc2ccc(C3=NCCN3)cc2[nH]1)/c1cc2ccc(C3=NCCN3)cc2[nH]1
[9]
  T/C: 162 % of control
dose: 200.0 mg/kg/injection, schedule: Q04DX003 (ip), vehicle: saline
  T/C: 162 % of control
dose: 400.0 mg/kg/injection, schedule: Q04DX003 (ip), vehicle: saline
  T/C: 271 % of control

## COc1cc(Br)cc(/C=C(\C)[N+](=O)[O-])c1O
dose: 12.5 mg/kg/injection, schedule: Q04DX003 (ip), vehicle: saline
  T/C: 101 % of control
dose: 25.0 mg/kg/injection, schedule: Q04DX003 (ip), vehicle: saline
  T/C: 99 % of control and 108 % of control
dose: 50.0 mg/kg/injection, schedule: Q04DX003 (ip), vehicle: saline
  T/C: 104 % of control and 110 % of control
[9]
  T/C: 104 % of control

## O=c1c2ccccc2c(=O)c2c1ccc1[nH]c3c(ccc4c(=O)c5ccccc5c(=O)c43)[nH]c12
[1]
  T/C: 95 % of control
[2]
  T/C: 107 % of control
[3]
  T/C: 104 % of control

## CC1(C)N=C(N)N=C(N)N1c1ccc(CNC(=O)Nc2cccc(S(=O)(=O)F)c2)cc1
[9]
  T/C: 154 % of control
dose: 150.0 mg/kg/injection, schedule: Q04DX003 (ip), vehicle: saline
  T/C: 168 % of control
dose: 225.0 mg/kg/injection, schedule: Q04DX003 (ip), vehicle: saline
  T/C: 200 % of control

## O=C(O)C(CO)NC(=O)C1CCCN1C(=O)OCc1ccccc1 (stereo not drawn) (Cbz-Pro-Ser-OH; configuration not given here)
[4]
  T/C: 96 % of control
[5]
  T/C: 93 % of control

## O=C1C2C3C=CC(C3)C2C(=O)C2(CO)OC12 (configuration not stated)
dose: 62.5 mg/kg/injection, schedule: Q04DX002 (ip), vehicle: saline
  T/C: 97 % of control
dose: 125.0 mg/kg/injection, schedule: Q04DX002 (ip), vehicle: saline
  T/C: 95 % of control
dose: 250.0 mg/kg/injection, schedule: Q04DX002 (ip), vehicle: saline
  T/C: 97 % of control

## CSc1nc2c(Cl)ncnc2s1
[10]
  T/C: 96 % of control
[11]
  T/C: 96 % of control

## O=C1CSC(c2ccccc2Br)N1c1nncs1 (configuration not stated)
[10]
  T/C: 101 % of control
[11]
  T/C: 97 % of control
dose: 240.0 mg/kg/injection, schedule: Q01DX005 (ip), vehicle: saline with Tween-80
  T/C: 93 % of control

## COC(=O)C1=C(C(=O)OC)[C](C(=O)c2ccccc2)([Sn]([CH3])([CH3])[CH3])N=N1 (configuration not stated)
dose: 0.78 mg/kg/injection, schedule: Q01DX009 (ip), vehicle: saline
  T/C: 92 % of control
dose: 1.56 mg/kg/injection, schedule: Q01DX009 (ip), vehicle: saline
  T/C: 89 % of control
dose: 3.12 mg/kg/injection, schedule: Q01DX009 (ip), vehicle: saline
  T/C: 93 % of control

## CCOc1nc(C(=O)O)cc2sccc12
dose: 100.0 mg/kg/injection, schedule: Q01DX001 (ip), vehicle: Klucel (hydroxypropylcellulose) (HPC)
  T/C: 90 % of control
dose: 200.0 mg/kg/injection, schedule: Q01DX001 (ip), vehicle: Klucel (hydroxypropylcellulose) (HPC)
  T/C: 93 % of control
dose: 400.0 mg/kg/injection, schedule: Q01DX001 (ip), vehicle: Klucel (hydroxypropylcellulose) (HPC)
  T/C: 88 % of control

## CN(/N=C/c1ccc(Cl)cc1)P(=O)(N1CC1)N1CC1
[12]
  T/C: 116 % of control
[13]
  T/C: 116 % of control
[1]
  T/C: 171 % of control

## CC1CCC2(C)OC1OC2CN (configuration not stated)
[1]
  T/C: 100 % of control
[2]
  T/C: 99 % of control
[3]
  T/C: 100 % of control

## CCCCCCCCSC(SCCCCCCCC)C(O)C(O)C(O)CO (configuration not stated)
[1]
  T/C: 93 % of control
[2]
  T/C: 109 % of control

## O=C(O)Cc1csc(=S)n1-c1ccccc1
[1]
  T/C: 97 % of control
[2]
  T/C: 102 % of control
[3]
  T/C: 90 % of control

## CCCCOc1ccc2nc3cc(Cl)ccc3c(Cl)c2n1
[12]
  T/C: 92 % of control
[13]
  T/C: 93 % of control
dose: 25.0 mg/kg/injection, schedule: Q01DX005 (ip), vehicle: saline with Tween-80
  T/C: 86 % of control

## C1=Cc2ccccc2/C1=C/c1cc2c3c(c1)CCCN3CCC2
[14]
  T/C: 95 % of control
[15]
  T/C: 91 % of control
[16]
  T/C: 92 % of control

## Cc1cc(C)nc(C2=C(O)c3ccccc3C2=O)c1
[14]
  T/C: 106 % of control
[15]
  T/C: 99 % of control
[16]
  T/C: 87 % of control and 96 % of control

## COc1ccc2c(c1)CCC1C2=CC(=O)/C1=C\[O-].COc1ccc2c(c1)CCC1C2=CC(=O)/C1=C\[O-].[Cu+2] (configuration not stated)
dose: 33.0 mg/kg/injection, schedule: Q04DX003 (ip), vehicle: saline with Tween-80
  T/C: 109 % of control
dose: 50.0 mg/kg/injection, schedule: Q04DX003 (ip), vehicle: saline with Tween-80
  T/C: 100 % of control and 90 % of control
dose: 75.0 mg/kg/injection, schedule: Q04DX003 (ip), vehicle: saline with Tween-80
  T/C: 100 % of control
